27 molecules from patent US7326721B2 (Hypnion, Inc., priority 2003, dated 2008) can be followed below.

In series [1] the target is T1, M2 muscarinic receptor (Homo sapiens, UniProt P08172).
T1 sequence (P08172 1-466): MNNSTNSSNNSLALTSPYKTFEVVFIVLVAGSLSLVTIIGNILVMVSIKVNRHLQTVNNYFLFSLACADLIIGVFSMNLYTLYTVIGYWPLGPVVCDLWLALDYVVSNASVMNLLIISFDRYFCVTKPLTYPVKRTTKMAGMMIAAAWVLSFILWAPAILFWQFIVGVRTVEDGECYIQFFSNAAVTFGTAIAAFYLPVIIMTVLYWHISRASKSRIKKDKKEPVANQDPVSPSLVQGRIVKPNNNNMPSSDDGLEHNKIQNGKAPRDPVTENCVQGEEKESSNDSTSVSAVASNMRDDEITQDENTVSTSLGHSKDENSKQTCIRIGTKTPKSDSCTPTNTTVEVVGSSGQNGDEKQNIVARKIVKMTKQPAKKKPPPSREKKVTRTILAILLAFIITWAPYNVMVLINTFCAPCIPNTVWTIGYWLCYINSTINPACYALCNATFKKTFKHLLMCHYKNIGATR
Nature of the series: Muscarinic M2 binding assay. More on the design: purchased PerkinElmer, Inc., Wellesley, Mass; host or cells: CHO cells. To be noted: for Ki: read-out: Ki M2.

In series [2] the test system is adult male Wistar rats. Put plainly: SCORE-2000 sleep-wakefulness, locomotor activity and body temperature monitoring. Type of series: in vivo, rat.
The target of series [3] is T2, H1 histamine receptor (Bos taurus, UniProt P30546).
T2 construct: the receptors were obtained from bovine cerebellar membrane tissue; from tissue; host or cells: bovine cerebellar membranes
T2 sequence (P30546 whole entry): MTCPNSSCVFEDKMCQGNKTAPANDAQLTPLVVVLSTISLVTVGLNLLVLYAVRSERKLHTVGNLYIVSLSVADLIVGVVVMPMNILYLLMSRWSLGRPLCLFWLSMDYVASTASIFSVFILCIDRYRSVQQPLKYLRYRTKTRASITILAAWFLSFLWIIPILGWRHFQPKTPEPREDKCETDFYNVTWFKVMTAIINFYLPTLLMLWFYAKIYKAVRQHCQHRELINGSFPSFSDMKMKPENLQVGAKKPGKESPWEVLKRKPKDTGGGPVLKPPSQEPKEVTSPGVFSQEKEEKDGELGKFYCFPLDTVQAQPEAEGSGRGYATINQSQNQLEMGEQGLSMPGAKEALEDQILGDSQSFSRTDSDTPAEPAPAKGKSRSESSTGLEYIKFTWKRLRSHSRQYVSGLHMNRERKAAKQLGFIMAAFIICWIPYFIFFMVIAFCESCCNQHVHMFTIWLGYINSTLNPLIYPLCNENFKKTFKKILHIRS
Nature of the series: Histamine H1 competitive binding assay ([3H]pyrilamine). More on the design: species or system bovine. To be noted: read-out: Ki H1.

The target of series [4] is T3, M1 muscarinic receptor (Homo sapiens, UniProt P11229).
T3 sequence (P11229 1-460): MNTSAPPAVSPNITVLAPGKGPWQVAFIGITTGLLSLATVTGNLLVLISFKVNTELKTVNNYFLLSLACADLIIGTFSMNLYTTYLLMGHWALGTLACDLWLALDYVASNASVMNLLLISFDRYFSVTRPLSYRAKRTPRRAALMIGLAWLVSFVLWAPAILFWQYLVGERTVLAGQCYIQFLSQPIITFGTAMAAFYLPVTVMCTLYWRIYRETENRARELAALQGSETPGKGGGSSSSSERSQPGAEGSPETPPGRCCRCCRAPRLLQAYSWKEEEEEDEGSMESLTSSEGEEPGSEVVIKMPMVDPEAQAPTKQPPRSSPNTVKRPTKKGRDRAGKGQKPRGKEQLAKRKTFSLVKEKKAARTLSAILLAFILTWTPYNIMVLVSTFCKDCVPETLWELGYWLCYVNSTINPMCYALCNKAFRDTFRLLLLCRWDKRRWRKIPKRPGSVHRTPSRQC
Put plainly: Muscarinic M1 binding assay ([3H]-scopolamine, N-methyl chloride). More on the design: purchased PerkinElmer, Inc., Wellesley, Mass; host or cells: CHO cells. To be noted: read-out: Ki M1.

Series [5] deals with M3 muscarinic receptor (Homo sapiens, UniProt P20309). Nature of the series: Muscarinic M3 binding assay. To be noted: read-out: Ki M3. More on the design: purchased PerkinElmer, Inc., Wellesley, Mass; host or cells: CHO cells.
Chain of M3 muscarinic receptor (P20309 whole entry): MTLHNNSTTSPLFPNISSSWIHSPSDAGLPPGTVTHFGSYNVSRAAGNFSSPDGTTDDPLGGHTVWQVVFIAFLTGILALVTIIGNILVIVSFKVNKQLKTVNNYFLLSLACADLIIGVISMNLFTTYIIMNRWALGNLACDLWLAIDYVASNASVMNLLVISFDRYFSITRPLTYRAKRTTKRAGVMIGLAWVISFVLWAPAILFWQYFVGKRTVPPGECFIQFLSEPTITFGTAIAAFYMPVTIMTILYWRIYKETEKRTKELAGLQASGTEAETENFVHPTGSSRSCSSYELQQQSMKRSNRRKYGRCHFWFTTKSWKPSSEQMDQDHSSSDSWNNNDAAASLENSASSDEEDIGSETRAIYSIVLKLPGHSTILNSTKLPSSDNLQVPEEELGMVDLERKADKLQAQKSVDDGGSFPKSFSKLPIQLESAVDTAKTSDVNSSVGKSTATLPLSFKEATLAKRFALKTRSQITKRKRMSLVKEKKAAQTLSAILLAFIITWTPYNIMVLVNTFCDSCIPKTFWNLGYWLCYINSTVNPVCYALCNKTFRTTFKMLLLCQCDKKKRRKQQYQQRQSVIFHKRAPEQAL
Series [6] addresses hERG (Homo sapiens, UniProt Q12809).

The structures appear in SMILES notation. Read-outs that look alike come from different tables or passages of the source.

Chain of hERG (Q12809 whole entry): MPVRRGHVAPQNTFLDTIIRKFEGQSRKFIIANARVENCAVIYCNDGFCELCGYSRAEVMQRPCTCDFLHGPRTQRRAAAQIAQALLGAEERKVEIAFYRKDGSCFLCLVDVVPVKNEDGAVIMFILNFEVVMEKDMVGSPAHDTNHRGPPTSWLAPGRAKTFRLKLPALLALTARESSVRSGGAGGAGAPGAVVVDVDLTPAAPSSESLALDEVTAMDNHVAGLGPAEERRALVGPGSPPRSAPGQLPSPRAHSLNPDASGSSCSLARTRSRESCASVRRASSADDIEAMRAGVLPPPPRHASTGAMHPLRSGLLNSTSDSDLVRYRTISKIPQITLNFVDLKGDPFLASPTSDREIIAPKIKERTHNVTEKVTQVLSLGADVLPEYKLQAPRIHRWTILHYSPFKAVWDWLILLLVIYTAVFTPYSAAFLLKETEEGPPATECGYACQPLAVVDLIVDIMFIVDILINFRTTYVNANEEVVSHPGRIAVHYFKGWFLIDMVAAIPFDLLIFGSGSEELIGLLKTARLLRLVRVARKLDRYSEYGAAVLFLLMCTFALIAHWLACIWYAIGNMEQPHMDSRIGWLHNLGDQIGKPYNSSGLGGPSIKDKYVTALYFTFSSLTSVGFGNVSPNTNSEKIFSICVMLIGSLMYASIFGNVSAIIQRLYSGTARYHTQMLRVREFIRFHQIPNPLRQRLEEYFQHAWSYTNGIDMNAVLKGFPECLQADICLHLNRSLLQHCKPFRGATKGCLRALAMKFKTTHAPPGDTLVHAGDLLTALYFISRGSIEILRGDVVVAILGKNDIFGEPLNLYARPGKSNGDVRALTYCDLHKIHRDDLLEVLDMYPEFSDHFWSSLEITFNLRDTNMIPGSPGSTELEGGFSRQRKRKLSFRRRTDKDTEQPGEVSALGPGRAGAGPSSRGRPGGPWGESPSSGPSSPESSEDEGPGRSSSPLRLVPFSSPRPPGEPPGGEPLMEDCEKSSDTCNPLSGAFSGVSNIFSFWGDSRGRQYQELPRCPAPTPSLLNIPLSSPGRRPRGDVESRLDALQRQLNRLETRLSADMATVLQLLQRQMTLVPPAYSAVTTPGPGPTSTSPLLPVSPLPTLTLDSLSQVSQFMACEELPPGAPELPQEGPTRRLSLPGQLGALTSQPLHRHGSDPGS

`C[N+]1(C)C2CC(OC(=O)C(CO)c3ccccc3)CC1C1OC12.[Br-]` (single isomer, unassigned; (-)) [(−)-scopolamine, MeBr, (−)-scopolamine, methyl-, bromide, reference compound] returned a Slope in series [1] (M2 binding curve (Table 17)) of −0.89.
As to `COc1ccc2c(c1)COc1ccc(OC)cc1C2=C1CCN(CC(C)(C)C(=O)O)CC1` [Compound 10a], the LUSB came out at 3.1 min in series [2] (dose 1 mg/kg oral at CT-18), 1.6 min in series [2] (dose 3 mg/kg oral at CT-18), 4 min in series [2] (dose 10 mg/kg oral at CT-18) and 6.8 min in series [2] (dose 30 mg/kg oral at CT-18). The NREM in series [2] (dose 1 mg/kg oral at CT-18) is -5 min; in series [2] (dose 3 mg/kg oral at CT-18) it was -8.9 min; in series [2] (dose 10 mg/kg oral at CT-18) it was 15.1 min; in series [2] (dose 30 mg/kg oral at CT-18), 30.9 min.
What is called Ki is a measure of affinity in units of concentration, obtained from inhibition or displacement. With `COc1ccc2c(c1)C(=C1CCN(CC(C)(C)C(=O)O)CC1)c1ccc(F)cc1CO2` [Compound 46a], the Ki was 2450 nM in series [1], 134 nM in series [3], greater than 10 µM in series [4] and greater than 10 µM in series [5]. Besides, the LUSB in series [2] (dose 3 mg/kg oral at CT-18) was 5 min; in series [2] (dose 10 mg/kg oral at CT-18), 8.2 min. The figures for the NREM in series [2] (dose 3 mg/kg oral at CT-18) and in series [2] (dose 10 mg/kg oral at CT-18) were 12.1 min and 36 min, respectively.
Take `CC(C)(CN1CCC(=C2c3ccc(F)cc3COc3ccc(F)cc32)CC1)C(=O)O` [Compound 48a]: the LUSB in series [2] (dose 1 mg/kg oral at CT-18) amounted to 6.9 min; in series [2] (dose 3 mg/kg oral at CT-18) it was 11.2 min; in series [2] (dose 10 mg/kg oral at CT-18) it was 10 min; in series [2] (dose 30 mg/kg oral at CT-18) it was 4.4 min. Further, the NREM worked out at 36.7 min in series [2] (dose 1 mg/kg oral at CT-18), 50.8 min in series [2] (dose 3 mg/kg oral at CT-18), 58.6 min in series [2] (dose 10 mg/kg oral at CT-18) and 39.4 min in series [2] (dose 30 mg/kg oral at CT-18).
Regarding `COc1ccc2c(c1)C(=C1CCN(CC(C)(C)C(=O)O)CC1)c1ccccc1CO2` [Compound 52a], the LUSB in series [2] (dose 3 mg/kg oral at CT-18) came to 8.2 min; in series [2] (dose 10 mg/kg oral at CT-18), 5.7 min; in series [2] (dose 30 mg/kg oral at CT-18) it was 10.1 min. Besides, the NREM in series [2] (dose 3 mg/kg oral at CT-18) came to 13.6 min; in series [2] (dose 10 mg/kg oral at CT-18) it was 26.8 min; in series [2] (dose 30 mg/kg oral at CT-18), 37.2 min.
For `COc1ccc2c(c1)C(=C1CCN(CC3(C(=O)O)CC3)CC1)c1ccccc1CO2` [Compound 52b], in series [2] (dose 10 mg/kg oral at CT-18), the LUSB amounted to 2.9 min and the NREM came out at 7.5 min. Also, in series [2] (dose 30 mg/kg oral at CT-18), the LUSB was determined as 7.1 min and the NREM is 26.8 min.
In the case of `CC(C)(CN1CCC(=C2c3ccccc3COc3ccc(F)cc32)CC1)C(=O)O` [Compound 53a], the LUSB was 5 min in series [2] (dose 1 mg/kg oral at CT-18), 17.2 min in series [2] (dose 3 mg/kg oral at CT-18), 14.4 min in series [2] (dose 10 mg/kg oral at CT-18) and 11.9 min in series [2] (dose 30 mg/kg oral at CT-18). The NREM in series [2] (dose 1 mg/kg oral at CT-18) worked out at 14.6 min; in series [2] (dose 3 mg/kg oral at CT-18) it was 38.6 min; in series [2] (dose 10 mg/kg oral at CT-18), 51.5 min; in series [2] (dose 30 mg/kg oral at CT-18), 66.3 min.
In series [2] (dose 30 mg/kg oral at CT-18), `CC(C)(CN1CCC(=C2c3ccc(C(F)(F)F)cc3COc3ccccc32)CC1)C(=O)O` [Compound 54a] registered an LUSB of 6.1 min and an NREM of 28.6 min.
On the same counts, the results for `CC(C)(CN1CCC(=C2c3ccccc3COc3ccc(O)cc32)CC1)C(=O)O` [Compound 55a] are 2 min and 12.8 min.
As to `O=C(O)C1(CN2CCC(=C3c4ccccc4COc4ccc(O)cc43)CC2)CC1` [Compound 55b], in series [2] (dose 10 mg/kg oral at CT-18), the LUSB worked out at 2.5 min and the NREM came out at 7.7 min.
For `CC(C)(CN1CCC(=C2c3ccc(O)cc3COc3ccccc32)CC1)C(=O)O` [Compound 56a], in series [2] (dose 30 mg/kg oral at CT-18), the LUSB is 4.3 min and the NREM amounted to 6.4 min.
Consider `O=C(O)C1(CN2CCC(=C3c4ccc(O)cc4COc4ccccc43)CC2)CC1` [Compound 56b], for which, in series [2] (dose 30 mg/kg oral at CT-18), the LUSB is -2.9 min and the NREM was -9.9 min.
On the same counts, the results for `Cc1ccc2c(c1)COc1ccccc1C2=C1CCN(CC(C)(C)C(=O)O)CC1` [Compound 57a] are -5.3 min and -11 min.
On to `CC(C)(CN1CCC(=C2c3ccc(F)cc3COc3ccc(O)cc32)CC1)C(=O)O` [Compound 58a], for which the LUSB in series [2] (dose 3 mg/kg oral at CT-18) was 5.3 min; in series [2] (dose 10 mg/kg oral at CT-18), 7.6 min. Moreover, the NREM in series [2] (dose 3 mg/kg oral at CT-18) is 9.1 min; in series [2] (dose 10 mg/kg oral at CT-18), -12.5 min.
Consider `CC(C)(CN1CCC(=C2c3ccc(O)cc3COc3ccc(F)cc32)CC1)C(=O)O` [Compound 60a], for which, in series [2] (dose 10 mg/kg oral at CT-18), the LUSB was found to be 3.7 min and the NREM is -5.2 min.
As for `COc1ccc2c(c1)COc1ccccc1C2=C1CCN(CCC2(C(=O)O)CC2)CC1` [Compound 62b], the Ki in series [1] was greater than 10000 nM; in series [3], 56.5 nM; in series [4], greater than 10 µM; in series [5], greater than 10 µM.
Consider `CC(C)(CCN1CCC(=C2c3ccc(O)cc3COc3ccccc32)CC1)C(=O)O` [Compound 63a], for which, in series [2] (dose 30 mg/kg oral at CT-18), the LUSB was 4.6 min and the NREM came out at 9.6 min.
In series [2] (dose 10 mg/kg oral at CT-18), `O=C(O)C1(CCN2CCC(=C3c4ccc(O)cc4COc4ccccc43)CC2)CC1` [Compound 63b] came in with an LUSB of 2.1 min and an NREM of -4.8 min.
Regarding `CC(C)(CCN1CCC(=C2c3ccc(C(F)(F)F)cc3COc3ccccc32)CC1)C(=O)O` [Compound 64a], in series [2] (dose 30 mg/kg oral at CT-18), the LUSB came out at 12.3 min and the NREM was 33.5 min.
In series [2] (dose 10 mg/kg oral at CT-18), `CC(C)(CCN1CCC(=C2c3ccccc3COc3ccc(O)cc32)CC1)C(=O)O` [Compound 65a] gave an LUSB of 1.5 min and an NREM of 6.2 min.
On the same counts, the results for `O=C(O)C1(CCN2CCC(=C3c4ccccc4COc4ccc(O)cc43)CC2)CC1` [Compound 65b] are 3.9 min and -5.7 min.
`Cc1ccc2c(c1)COc1ccccc1C2=C1CCN(CCC(C)(C)C(=O)O)CC1` [Compound 66a]: in series [2] (dose 30 mg/kg oral at CT-18), the LUSB was 8.8 min and the NREM stood at 27.8 min.
On the same counts, the results for `COc1ccc2c(c1)C(=C1CCN(CCC(C)(C)C(=O)O)CC1)c1ccccc1CO2` [Compound 67a] are 6.5 min and -11.5 min.
On to `CC(C)(CCN1CCC(=C2c3ccc(Cl)cc3COc3ccccc32)CC1)C(=O)O` [Compound 68a], for which the values for the LUSB in series [2] (dose 3 mg/kg oral at CT-18), in series [2] (dose 10 mg/kg oral at CT-18) and in series [2] (dose 30 mg/kg oral at CT-18) were 4.3 min, 7.8 min and 11.9 min, respectively. Further, the values for the NREM in series [2] (dose 3 mg/kg oral at CT-18), in series [2] (dose 10 mg/kg oral at CT-18) and in series [2] (dose 30 mg/kg oral at CT-18) were 20.9 min, 45.9 min and 50.8 min, respectively. Besides, the “hERG at micromolar (% blocking of the hERG channel)” value in series [6] came to 25.3% @ 10.
Turning to `CC(C)(CN1CCC(=C2c3ccccc3COc3ccccc32)CC1)C(=O)O` [Compound 69a], the values for the LUSB in series [2] (dose 3 mg/kg oral at CT-18), in series [2] (dose 10 mg/kg oral at CT-18) and in series [2] (dose 30 mg/kg oral at CT-18) were 7.1 min, 13.1 min and 13.5 min, respectively. Besides, the values for the NREM in series [2] (dose 3 mg/kg oral at CT-18), in series [2] (dose 10 mg/kg oral at CT-18) and in series [2] (dose 30 mg/kg oral at CT-18) were 32.2 min, 32.8 min and 40 min, respectively. Further, the “hERG at micromolar (% blocking of the hERG channel)” value in series [6] (human, 1 µM, pH 7.4) turned out to be 6.1% @ 1.
For the molecule `O=C(O)CCN1CCC(=C2c3ccccc3COc3ccccc32)CC1` [Compound 69e], the results for the LUSB in series [2] (dose 3 mg/kg oral at CT-18), in series [2] (dose 10 mg/kg oral at CT-18) and in series [2] (dose 20 mg/kg oral at CT-18) were 5.6 min, 9.7 min and 12.3 min, respectively. For the same molecule, the NREM worked out at 21.2 min in series [2] (dose 3 mg/kg oral at CT-18), 28.4 min in series [2] (dose 10 mg/kg oral at CT-18) and 54.6 min in series [2] (dose 20 mg/kg oral at CT-18). Moreover, in series [6], the “hERG at micromolar (% blocking of the hERG channel)” value was −1.4% @ 1.
On to `CC(C)(CCCN1CCC(=C2c3ccccc3COc3ccccc32)CC1)C(=O)O` [Compound 71a], for which, in series [2] (dose 30 mg/kg oral at CT-18), the LUSB is 3.6 min and the NREM was found to be 8.1 min.
